# Patent US4288629A, “1-Hydroxymethyl-11-deoxy-15-hydroxy-prosten-1-ol-derivatives” (American Cyanamid Company, priority 1980, dated 1981)
# Experiments:
# Assay type in all cases: in vivo
# 5-HT = test: KONZETT DATA, 5-HT; conditions: spasmogen 5-HT
# Hist = test: KONZETT DATA, Hist; conditions: spasmogen Hist
# Ach = test: KONZETT DATA, Ach; conditions: spasmogen Ach
smiles,measurement,setting,value
"CCCCCC(C)(O)/C=C/C1C(O)CC(=O)C1C/C=C\CCCCO (racemic) [dl-1,11,15-trihydroxymethyl-9-oxo-15-methyl-5-cis-13-trans prostadiene]",5-HT (ED50 g/kg),5-HT,0.0083 g/kg
same,Hist (ED50 g/kg),Hist,0.00075 g/kg
same,Ach (ED50 g/kg),Ach,0.0043 g/kg
